How the values were obtained:
Settings in all cases: compound 1.0 µM
SRC (human) = SRC (human) (UniProt P12931)
AURKA (human) = AURKA (human) (UniProt O14965)
MAPKAPK2 (human) = MAPKAPK2 (human) (UniProt P49137)
GSK3B (human) = GSK3B (human) (UniProt P49841)
ROCK1 (human) = ROCK1 (human) (UniProt Q13464)
FGFR1 (human) = FGFR1 (human) (UniProt P11362)
MAPK14 (human) = MAPK14 (human) (UniProt Q16539)
TAOK3 (human) = TAOK3 (human) (UniProt Q9H2K8)
PRKCB1 (human) = PRKCB1 (human) (UniProt P05771)
PRKACA (human) = PRKACA (human) (UniProt P17612)
MST4 (human) = MST4 (human) (UniProt Q9P289)
CHEK1 (human) = CHEK1 (human) (UniProt O14757)
Sequence of CHEK1 (human) (O14757 whole entry, looked up): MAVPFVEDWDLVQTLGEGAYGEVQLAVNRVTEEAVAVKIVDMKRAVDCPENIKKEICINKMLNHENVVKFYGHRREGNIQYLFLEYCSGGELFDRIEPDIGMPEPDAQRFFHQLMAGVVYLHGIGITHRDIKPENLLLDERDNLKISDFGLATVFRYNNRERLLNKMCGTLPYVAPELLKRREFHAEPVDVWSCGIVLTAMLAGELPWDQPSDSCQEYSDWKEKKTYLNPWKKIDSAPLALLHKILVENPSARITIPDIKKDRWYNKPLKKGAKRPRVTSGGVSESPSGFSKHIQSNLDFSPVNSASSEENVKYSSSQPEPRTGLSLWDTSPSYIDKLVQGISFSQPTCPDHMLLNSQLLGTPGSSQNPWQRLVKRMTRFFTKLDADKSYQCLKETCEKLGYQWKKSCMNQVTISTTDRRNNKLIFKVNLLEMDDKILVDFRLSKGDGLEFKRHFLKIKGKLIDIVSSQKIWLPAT

LCK (human) = LCK (human) (UniProt P06239)
Sequence of LCK (human) (P06239 whole entry, looked up): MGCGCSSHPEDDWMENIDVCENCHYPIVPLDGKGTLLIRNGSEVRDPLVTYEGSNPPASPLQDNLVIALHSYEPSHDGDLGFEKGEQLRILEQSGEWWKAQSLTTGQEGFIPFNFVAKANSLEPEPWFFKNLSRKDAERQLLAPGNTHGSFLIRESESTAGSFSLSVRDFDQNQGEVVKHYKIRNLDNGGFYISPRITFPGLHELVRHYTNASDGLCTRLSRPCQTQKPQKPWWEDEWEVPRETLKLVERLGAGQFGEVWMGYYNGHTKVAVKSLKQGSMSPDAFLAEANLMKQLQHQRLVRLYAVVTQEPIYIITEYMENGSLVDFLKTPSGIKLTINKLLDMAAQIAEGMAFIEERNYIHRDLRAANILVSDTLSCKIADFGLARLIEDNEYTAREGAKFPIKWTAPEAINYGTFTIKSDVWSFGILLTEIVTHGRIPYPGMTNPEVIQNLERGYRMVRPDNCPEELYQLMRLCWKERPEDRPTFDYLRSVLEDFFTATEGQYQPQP

IKBKB (human) = IKBKB (human) (UniProt O14920)
Sequence of IKBKB (human) (O14920 whole entry, looked up): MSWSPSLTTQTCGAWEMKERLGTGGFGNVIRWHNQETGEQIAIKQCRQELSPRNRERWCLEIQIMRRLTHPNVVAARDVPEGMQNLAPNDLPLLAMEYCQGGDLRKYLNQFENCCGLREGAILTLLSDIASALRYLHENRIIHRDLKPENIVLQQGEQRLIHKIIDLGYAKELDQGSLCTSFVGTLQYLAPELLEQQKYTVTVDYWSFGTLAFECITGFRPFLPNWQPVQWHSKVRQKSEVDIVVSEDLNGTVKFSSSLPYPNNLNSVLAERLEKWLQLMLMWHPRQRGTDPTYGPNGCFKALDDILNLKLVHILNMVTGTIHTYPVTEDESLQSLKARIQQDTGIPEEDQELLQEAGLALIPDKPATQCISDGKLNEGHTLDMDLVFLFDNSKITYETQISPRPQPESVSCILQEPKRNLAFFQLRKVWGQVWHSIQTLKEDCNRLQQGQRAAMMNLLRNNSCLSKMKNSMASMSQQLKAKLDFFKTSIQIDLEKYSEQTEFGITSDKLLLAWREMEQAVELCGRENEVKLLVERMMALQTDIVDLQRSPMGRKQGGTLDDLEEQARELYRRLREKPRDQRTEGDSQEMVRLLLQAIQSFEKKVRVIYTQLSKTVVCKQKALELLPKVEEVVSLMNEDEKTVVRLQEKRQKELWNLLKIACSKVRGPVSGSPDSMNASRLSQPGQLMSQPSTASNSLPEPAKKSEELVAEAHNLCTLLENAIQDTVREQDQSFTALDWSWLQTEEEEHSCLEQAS

PAK4 (human) = PAK4 (human) (UniProt O96013)
CSNK2A1 (human) = CSNK2A1 (human) (UniProt P68400)
Sequence of CSNK2A1 (human) (P68400 whole entry, looked up): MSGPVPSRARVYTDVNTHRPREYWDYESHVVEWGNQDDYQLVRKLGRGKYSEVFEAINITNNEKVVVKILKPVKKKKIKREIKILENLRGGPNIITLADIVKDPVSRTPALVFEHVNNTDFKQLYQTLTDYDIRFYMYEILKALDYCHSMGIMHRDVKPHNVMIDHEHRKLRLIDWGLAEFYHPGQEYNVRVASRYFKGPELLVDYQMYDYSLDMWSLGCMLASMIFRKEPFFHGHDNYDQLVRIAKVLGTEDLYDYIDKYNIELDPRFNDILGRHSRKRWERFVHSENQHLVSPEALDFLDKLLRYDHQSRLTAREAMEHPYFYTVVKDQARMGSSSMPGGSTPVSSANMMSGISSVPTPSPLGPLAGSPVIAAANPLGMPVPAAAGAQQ

ABL1 (human) = ABL1 (human) (UniProt P00519)
Sequence of ABL1 (human) (P00519 whole entry, looked up): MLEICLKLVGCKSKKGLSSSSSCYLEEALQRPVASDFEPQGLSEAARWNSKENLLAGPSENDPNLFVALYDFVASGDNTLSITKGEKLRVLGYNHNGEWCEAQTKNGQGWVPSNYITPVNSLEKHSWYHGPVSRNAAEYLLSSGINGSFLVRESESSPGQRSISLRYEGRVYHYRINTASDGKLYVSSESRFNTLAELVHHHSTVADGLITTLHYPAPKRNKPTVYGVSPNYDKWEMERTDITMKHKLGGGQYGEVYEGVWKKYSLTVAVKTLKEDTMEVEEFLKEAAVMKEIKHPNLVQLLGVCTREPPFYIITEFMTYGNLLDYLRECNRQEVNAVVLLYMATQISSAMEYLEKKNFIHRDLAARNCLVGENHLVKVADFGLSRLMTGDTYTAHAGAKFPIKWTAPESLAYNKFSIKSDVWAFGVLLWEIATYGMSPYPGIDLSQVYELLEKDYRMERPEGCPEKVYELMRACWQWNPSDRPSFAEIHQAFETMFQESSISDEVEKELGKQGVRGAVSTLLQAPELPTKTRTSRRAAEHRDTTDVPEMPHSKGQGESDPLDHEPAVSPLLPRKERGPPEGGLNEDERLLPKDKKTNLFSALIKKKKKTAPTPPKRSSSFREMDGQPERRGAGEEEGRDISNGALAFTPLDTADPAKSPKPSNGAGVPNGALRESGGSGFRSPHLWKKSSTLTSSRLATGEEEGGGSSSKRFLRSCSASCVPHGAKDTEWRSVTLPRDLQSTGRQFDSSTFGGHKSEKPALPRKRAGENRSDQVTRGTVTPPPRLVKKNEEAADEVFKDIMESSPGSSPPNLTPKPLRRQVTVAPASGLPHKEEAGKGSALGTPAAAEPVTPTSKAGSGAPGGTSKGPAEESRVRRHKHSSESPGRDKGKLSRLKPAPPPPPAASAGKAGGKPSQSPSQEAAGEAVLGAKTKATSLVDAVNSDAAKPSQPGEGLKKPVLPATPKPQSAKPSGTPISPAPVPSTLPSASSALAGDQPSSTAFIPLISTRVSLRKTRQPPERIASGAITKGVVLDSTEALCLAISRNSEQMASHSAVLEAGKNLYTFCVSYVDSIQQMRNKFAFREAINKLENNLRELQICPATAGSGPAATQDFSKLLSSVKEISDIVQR

KDR (human) = KDR (human) (UniProt P35968)
AKT1 (human) = AKT1 (human) (UniProt P31749)
Sequence of AKT1 (human) (P31749 whole entry, looked up): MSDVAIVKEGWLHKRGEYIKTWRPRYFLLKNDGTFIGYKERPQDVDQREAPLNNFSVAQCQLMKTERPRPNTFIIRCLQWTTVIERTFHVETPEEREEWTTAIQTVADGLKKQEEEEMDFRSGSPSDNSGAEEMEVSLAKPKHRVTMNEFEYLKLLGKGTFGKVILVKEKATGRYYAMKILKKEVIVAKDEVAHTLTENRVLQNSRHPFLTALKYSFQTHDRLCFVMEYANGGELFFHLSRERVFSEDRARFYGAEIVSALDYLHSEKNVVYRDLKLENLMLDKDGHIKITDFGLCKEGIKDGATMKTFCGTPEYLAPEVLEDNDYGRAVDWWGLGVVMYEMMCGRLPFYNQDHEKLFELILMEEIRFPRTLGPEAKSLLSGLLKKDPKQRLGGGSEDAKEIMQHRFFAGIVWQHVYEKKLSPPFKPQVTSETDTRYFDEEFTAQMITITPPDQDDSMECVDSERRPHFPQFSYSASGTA

MAPK1 (human) = MAPK1 (human) (UniProt P28482)
MET (human) = MET (human) (UniProt P08581)
PDPK1 (human) = PDPK1 (human) (UniProt O15530)
CDK2 (human) = CDK2 (human) (UniProt P24941)
IKBKE (human) = IKBKE (human) (UniProt Q14164)
INSR (human) = INSR (human) (UniProt P06213)
NTRK1 (human) = NTRK1 (human) (UniProt P04629)
EGFR (human) = EGFR (human) (UniProt P00533)

Sequence of SRC (human) (P12931 whole entry, looked up): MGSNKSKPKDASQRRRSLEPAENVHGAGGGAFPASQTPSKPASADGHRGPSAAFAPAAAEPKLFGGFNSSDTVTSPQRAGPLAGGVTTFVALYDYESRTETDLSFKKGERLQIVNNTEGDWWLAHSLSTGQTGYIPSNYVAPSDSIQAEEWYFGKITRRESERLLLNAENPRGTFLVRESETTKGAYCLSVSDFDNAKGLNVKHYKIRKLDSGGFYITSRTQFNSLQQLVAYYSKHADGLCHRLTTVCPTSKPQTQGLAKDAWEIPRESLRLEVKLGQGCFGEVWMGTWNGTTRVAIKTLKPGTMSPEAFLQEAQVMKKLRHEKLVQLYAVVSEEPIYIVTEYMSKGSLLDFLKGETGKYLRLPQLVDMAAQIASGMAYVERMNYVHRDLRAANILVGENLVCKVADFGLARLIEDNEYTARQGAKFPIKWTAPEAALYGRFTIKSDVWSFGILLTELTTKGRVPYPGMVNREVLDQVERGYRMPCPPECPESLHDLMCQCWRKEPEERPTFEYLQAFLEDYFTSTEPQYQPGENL
Sequence of AURKA (human) (O14965 whole entry, looked up): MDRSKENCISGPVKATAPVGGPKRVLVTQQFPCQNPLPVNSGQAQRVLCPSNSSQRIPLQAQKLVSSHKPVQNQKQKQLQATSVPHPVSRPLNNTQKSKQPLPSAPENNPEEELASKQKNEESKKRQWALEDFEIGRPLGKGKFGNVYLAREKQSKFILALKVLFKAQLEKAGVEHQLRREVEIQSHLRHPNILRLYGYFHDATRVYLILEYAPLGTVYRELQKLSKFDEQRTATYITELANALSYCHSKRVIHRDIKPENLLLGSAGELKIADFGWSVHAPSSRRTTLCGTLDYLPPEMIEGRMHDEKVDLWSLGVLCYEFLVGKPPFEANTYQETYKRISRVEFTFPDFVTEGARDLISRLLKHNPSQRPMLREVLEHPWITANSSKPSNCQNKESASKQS

Structure (SMILES): O=C1NCCc2[nH]c(-c3ccnc(-c4ccccc4F)c3)cc21
- inhibition (SRC (human)): 9.9%
- inhibition (AURKA (human)): 0%
- inhibition (MAPKAPK2 (human)): 73.7%
- inhibition (GSK3B (human)): 3.4%
- inhibition (ROCK1 (human)): 5.4%
- inhibition (FGFR1 (human)): 0%
- inhibition (MAPK14 (human)): 6.7%
- inhibition (TAOK3 (human)): 33.8%
- inhibition (PRKCB1 (human)): 0%
- inhibition (PRKACA (human)): 4.3%
- inhibition (MST4 (human)): 10%
- inhibition (CHEK1 (human)): 1.8%
- inhibition (LCK (human)): 0%
- inhibition (IKBKB (human)): 0%
- inhibition (PAK4 (human)): 4.1%
- inhibition (CSNK2A1 (human)): 20.5%
- inhibition (ABL1 (human)): 0%
- inhibition (KDR (human)): 11.9%
- inhibition (AKT1 (human)): 3.5%
- inhibition (MAPK1 (human)): 11.7%
- inhibition (MET (human)): 30.4%
- inhibition (PDPK1 (human)): 0%
- inhibition (CDK2 (human)): 7%
- inhibition (IKBKE (human)): 0%

Structure (SMILES): CS(=O)c1ccc(-c2nc(-c3ccc(F)cc3)c(-c3ccncc3)[nH]2)cc1 (stereo not given)
- inhibition (SRC (human)): 16.6%
- inhibition (AURKA (human)): 0%
- inhibition (MAPKAPK2 (human)): 0%
- inhibition (GSK3B (human)): 52.6%
- inhibition (ROCK1 (human)): 4.88%
- inhibition (FGFR1 (human)): 0%
- inhibition (TAOK3 (human)): 15.7%
- inhibition (PRKCB1 (human)): 23.6%
- inhibition (INSR (human)): 0.995%
- inhibition (PRKACA (human)): 18.4%
- inhibition (MST4 (human)): 0%
- inhibition (CHEK1 (human)): 0%
- inhibition (LCK (human)): 7.1%
- inhibition (IKBKB (human)): 0%
- inhibition (PAK4 (human)): 6.86%
- inhibition (CSNK2A1 (human)): 0%
- inhibition (ABL1 (human)): 3.15%
- inhibition (KDR (human)): 13.5%
- inhibition (AKT1 (human)): 0.56%
- inhibition (MAPK1 (human)): 11.7%
- inhibition (MET (human)): 0%
- inhibition (PDPK1 (human)): 0%
- inhibition (NTRK1 (human)): 4.44%
- inhibition (CDK2 (human)): 0%
- inhibition (IKBKE (human)): 0%

Structure (SMILES): CS(=O)(=O)CCNCc1ccc(-c2ccc3ncnc(Nc4ccc(OCc5cccc(F)c5)c(Cl)c4)c3c2)o1
- inhibition (SRC (human)): 0%
- inhibition (AURKA (human)): 0%
- inhibition (MAPKAPK2 (human)): 0%
- inhibition (GSK3B (human)): 0%
- inhibition (ROCK1 (human)): 0%
- inhibition (FGFR1 (human)): 0%
- inhibition (MAPK14 (human)): 0%
- inhibition (TAOK3 (human)): 0%
- inhibition (PRKCB1 (human)): 0%
- inhibition (INSR (human)): 0%
- inhibition (PRKACA (human)): 0%
- inhibition (MST4 (human)): 0%
- inhibition (CHEK1 (human)): 0%
- inhibition (LCK (human)): 0%
- inhibition (IKBKB (human)): 0%
- inhibition (PAK4 (human)): 0%
- inhibition (CSNK2A1 (human)): 0%
- inhibition (ABL1 (human)): 0%
- inhibition (KDR (human)): 0%
- inhibition (AKT1 (human)): 0%
- inhibition (MAPK1 (human)): 0%
- inhibition (MET (human)): 0%
- inhibition (PDPK1 (human)): 0%
- inhibition (NTRK1 (human)): 0%
- inhibition (CDK2 (human)): 0%
- inhibition (IKBKE (human)): 0%

Structure (SMILES): C#Cc1cccc(Nc2ncnc3cc(OCCOC)c(OCCOC)cc23)c1
- inhibition (SRC (human)): 36.7%
- inhibition (AURKA (human)): 39.1%
- inhibition (MAPKAPK2 (human)): 0%
- inhibition (GSK3B (human)): 13.6%
- inhibition (ROCK1 (human)): 0%
- inhibition (FGFR1 (human)): 0%
- inhibition (MAPK14 (human)): 0%
- inhibition (TAOK3 (human)): 0%
- inhibition (PRKCB1 (human)): 27.9%
- inhibition (INSR (human)): 3.4%
- inhibition (PRKACA (human)): 0.1%
- inhibition (MST4 (human)): 18.7%
- inhibition (CHEK1 (human)): 0%
- inhibition (IKBKB (human)): 6.5%
- inhibition (PAK4 (human)): 5.7%
- inhibition (CSNK2A1 (human)): 0%
- inhibition (ABL1 (human)): 80.6%
- inhibition (KDR (human)): 63.6%
- inhibition (AKT1 (human)): 11.1%
- inhibition (MAPK1 (human)): 2.3%
- inhibition (MET (human)): 19.4%
- inhibition (PDPK1 (human)): 0%
- inhibition (NTRK1 (human)): 18.5%
- inhibition (CDK2 (human)): 0%
- inhibition (IKBKE (human)): 6.5%

Structure (SMILES): O=S(=O)(c1cccc2cnccc12)N1CCCNCC1
- inhibition (SRC (human)): 0.9%
- inhibition (AURKA (human)): 4.4%
- inhibition (MAPKAPK2 (human)): 0%
- inhibition (GSK3B (human)): 0%
- inhibition (ROCK1 (human)): 86.1%
- inhibition (FGFR1 (human)): 0%
- inhibition (MAPK14 (human)): 0.9%
- inhibition (TAOK3 (human)): 0%
- inhibition (PRKCB1 (human)): 5.6%
- inhibition (INSR (human)): 1.9%
- inhibition (MST4 (human)): 3.5%
- inhibition (CHEK1 (human)): 0%
- inhibition (LCK (human)): 0%
- inhibition (IKBKB (human)): 0%
- inhibition (CSNK2A1 (human)): 0%
- inhibition (ABL1 (human)): 0%
- inhibition (KDR (human)): 4%
- inhibition (AKT1 (human)): 16%
- inhibition (MAPK1 (human)): 1.5%
- inhibition (MET (human)): 0%
- inhibition (PDPK1 (human)): 0%
- inhibition (NTRK1 (human)): 0.9%
- inhibition (CDK2 (human)): 0%
- inhibition (IKBKE (human)): 0%

Structure (SMILES): CC[C@@H](CO)Nc1nc(NCc2ccccc2)c2ncn(C(C)C)c2n1
- inhibition (SRC (human)): 4.9%
- inhibition (AURKA (human)): 0%
- inhibition (MAPKAPK2 (human)): 0%
- inhibition (GSK3B (human)): 0%
- inhibition (ROCK1 (human)): 0%
- inhibition (FGFR1 (human)): 0%
- inhibition (MAPK14 (human)): 5.04%
- inhibition (TAOK3 (human)): 3.7%
- inhibition (PRKCB1 (human)): 8.46%
- inhibition (EGFR (human)): 5.07%
- inhibition (INSR (human)): 1.28%
- inhibition (PRKACA (human)): 5.58%
- inhibition (MST4 (human)): 0%
- inhibition (CHEK1 (human)): 0%
- inhibition (LCK (human)): 0%
- inhibition (IKBKB (human)): 0%
- inhibition (PAK4 (human)): 2.92%
- inhibition (CSNK2A1 (human)): 1.93%
- inhibition (ABL1 (human)): 8.86%
- inhibition (KDR (human)): 1.35%
- inhibition (AKT1 (human)): 0%
- inhibition (MAPK1 (human)): 0%
- inhibition (MET (human)): 0%
- inhibition (PDPK1 (human)): 0%
- inhibition (NTRK1 (human)): 3.46%
- inhibition (IKBKE (human)): 0.63%

Structure (SMILES): Cc1ccc(-c2nn(C(C)(C)C)c3ncnc(N)c23)cc1
- inhibition (SRC (human)): 93.4%
- inhibition (AURKA (human)): 8.8%
- inhibition (MAPKAPK2 (human)): 0.2%
- inhibition (GSK3B (human)): 2.8%
- inhibition (ROCK1 (human)): 2.8%
- inhibition (FGFR1 (human)): 50.1%
- inhibition (MAPK14 (human)): 33.7%
- inhibition (TAOK3 (human)): 17.4%
- inhibition (PRKCB1 (human)): 17.5%
- inhibition (PRKACA (human)): 29.2%
- inhibition (MST4 (human)): 14.8%
- inhibition (CHEK1 (human)): 0%
- inhibition (LCK (human)): 94.5%
- inhibition (IKBKB (human)): 4.4%
- inhibition (PAK4 (human)): 5.3%
- inhibition (CSNK2A1 (human)): 1%
- inhibition (ABL1 (human)): 82.9%
- inhibition (KDR (human)): 70.6%
- inhibition (AKT1 (human)): 10.6%
- inhibition (MAPK1 (human)): 6.6%
- inhibition (MET (human)): 11.3%
- inhibition (PDPK1 (human)): 0%
- inhibition (NTRK1 (human)): 49.8%
- inhibition (CDK2 (human)): 2.5%
- inhibition (IKBKE (human)): 3.9%

— the kinase profiling compilation of Christmann-Franck et al. (2016)
